# Source: patent US20170190671A1, “BIS(ARYL)CATECHOL DERIVATIVES AS HERBICIDES” (E I DU PONT DE NEMOURS AND COMPANY, priority 2014, published 2017)
# Assays:
# Format in all cases: in vivo
# [1] = system: wheat (Triticum aestivum); assay: Test A postemergence; conditions: 0 to 100 scale
# Source text: (§1) Seeds of plant species selected from barnyardgrass (Echinochloa crus-galli), kochia (Kochia scoparia), ragweed (common ragweed, Ambrosia elatior), Italian ryegrass (Lolium multiflorum), large (Lg) crabgrass (Digitaria sanguinalis), giant foxtail (Setaria faberii), morningglory (Ipomoea spp.), pigweed (Amaranthus retroflexus), velvetleaf (Abutilon theophrasti), wheat (Triticum aestivum), and corn (Zea mays) were planted into a blend of loam soil and sand and treated preemergence with a directed soil spray using test chemicals formulated in a non-phytotoxic solvent mixture which included a surfactant.
# (§2) At the same time, plants selected from these crop and weed species and also blackgrass (Alopecurus myosuroides), and galium (catchweed bedstraw, Galium aparine) were planted in pots containing the same blend of loam soil and sand and treated with postemergence applications of test chemicals formulated in the same manner. Plants ranged in height from 2 to 10 cm and were in the one- to two-leaf stage for the postemergence treatment. Treated plants and untreated controls were maintained in a greenhouse for approximately 10 days, after which time all treated plants were compared to untreated controls and visually evaluated for injury. Plant response ratings, summarized in Table A, are based on a 0 to 100 scale where 0 is no effect and 100 is complete control. A dash (-) response means no test result.
# [2] = system: Italian ryegrass (Lolium multiflorum); assay: Test A postemergence; conditions: 0 to 100 scale
# Source text: as §1, §2
# [3] = system: blackgrass (Alopecurus myosuroides); assay: Test A postemergence; conditions: 0 to 100 scale
# Source text: as §1, §2
# [4] = system: galium (catchweed bedstraw, Galium aparine); assay: Test A postemergence; conditions: 0 to 100 scale
# Source text: as §1, §2
# corn (Zea mays) = assay: Test A postemergence; conditions: 0 to 100 scale
# Source text: as §1, §2
# [5] = system: pigweed (Amaranthus retroflexus); assay: Test A postemergence; conditions: 0 to 100 scale
# Source text: as §1, §2
# [6] = system: ragweed (common ragweed, Ambrosia elatior); assay: Test A postemergence; conditions: 0 to 100 scale
# Source text: as §1, §2
# [7] = system: barnyardgrass (Echinochloa crus-galli); assay: Test A postemergence; conditions: 0 to 100 scale
# Source text: as §1, §2
# kochia (Kochia scoparia) [8] = assay: Test A postemergence; conditions: 0 to 100 scale
# Source text: as §1, §2
# [9] = system: giant foxtail (Setaria faberii); assay: Test A postemergence; conditions: 0 to 100 scale
# Source text: as §1, §2
# [10] = system: Italian ryegrass (Lolium multiflorum); assay: Test A preemergence
# Source text: as §1, §2
# [11] = system: pigweed (Amaranthus retroflexus); assay: Test A preemergence
# Source text: as §1, §2
# [12] = system: ragweed (common ragweed, Ambrosia elatior); assay: Test A preemergence
# Source text: as §1, §2
# [13] = system: barnyardgrass (Echinochloa crus-galli); assay: Test A preemergence
# Source text: as §1, §2
# kochia (Kochia scoparia) [14] = assay: Test A preemergence
# Source text: as §1, §2
# [15] = system: giant foxtail (Setaria faberii); assay: Test A preemergence
# Source text: as §1, §2
# [16] = 31 g ai/ha, 0 to 100 scale (0 no effect, 100 complete control)
structure (smiles),measurement,setting,value
FC(F)(F)c1cnc(Oc2c(Br)cccc2Oc2ncc(Cl)cn2)s1 [Compound 6],"Plant response rating, Wheat",[1]; 31 g ai/ha,0
same,"Plant response rating, Wheat",[1]; 125 g ai/ha,10
same,"Plant response rating, Ryegrass, Italian",[2]; 31 g ai/ha,0
same,"Plant response rating, Ryegrass, Italian",[2]; 125 g ai/ha,50
same,"Plant response rating, Blackgrass",[3]; 31 g ai/ha,10
same,"Plant response rating, Blackgrass",[3]; 125 g ai/ha,40
same,"Plant response rating, Galium",[4]; 31 g ai/ha,70
same,"Plant response rating, Galium",[4]; 125 g ai/ha,100
same,"Plant response rating, Corn",corn (Zea mays); 31 g ai/ha,0
same,"Plant response rating, Corn",corn (Zea mays); 125 g ai/ha,10
same,"Plant response rating, Pigweed",[5]; 31 g ai/ha,50
same,"Plant response rating, Pigweed",[5]; 125 g ai/ha,90
same,"Plant response rating, Ragweed",[6]; 31 g ai/ha,0
same,"Plant response rating, Ragweed",[6]; 125 g ai/ha,20
same,"Plant response rating, Barnyardgrass",[7]; 31 g ai/ha,10
same,"Plant response rating, Barnyardgrass",[7]; 125 g ai/ha,100
same,"Plant response rating, Kochia",kochia (Kochia scoparia) [8]; 31 g ai/ha,70
same,"Plant response rating, Kochia",kochia (Kochia scoparia) [8]; 125 g ai/ha,100
same,"Plant response rating, Foxtail, Giant",[9]; 31 g ai/ha,10
same,"Plant response rating, Foxtail, Giant",[9]; 125 g ai/ha,60
same,"Ryegrass, Italian plant response rating",[10]; [16],0
same,"Plant response rating, Ryegrass, Italian","[10]; 125 g ai/ha, 0 to 100 scale",20
same,Pigweed plant response rating,[11]; [16],30
same,"Plant response rating, Pigweed","[11]; 125 g ai/ha, 0 to 100 scale",90
same,Ragweed plant response rating,[12]; [16],0
same,"Plant response rating, Ragweed","[12]; 125 g ai/ha, 0 to 100 scale",0
same,Barnyardgrass plant response rating,[13]; [16],20
same,"Plant response rating, Barnyardgrass","[13]; 125 g ai/ha, 0 to 100 scale",70
same,Kochia plant response rating,kochia (Kochia scoparia) [14]; [16],30
same,"Plant response rating, Kochia","kochia (Kochia scoparia) [14]; 125 g ai/ha, 0 to 100 scale",80
same,"Foxtail, Giant plant response rating",[15]; [16],60
same,"Plant response rating, Foxtail, Giant","[15]; 125 g ai/ha, 0 to 100 scale",100
N#Cc1cccc(Oc2ncc(Br)cn2)c1Oc1cccnc1 [Compound 7],plant injury at 31 g/ha,"[1]; Triticum aestivum, post-emergence, 240 h, 31 g ai/ha, read-out: Plant response rating, Wheat",0%
same,plant injury at 125 g/ha,"[1]; Triticum aestivum, post-emergence, 240 h, 125 g ai/ha, read-out: Plant response rating, Wheat",0%
same,pest or weed control at 31 g/ha,"[2]; Lolium multiflorum, post-emergence, 240 h, 31 g ai/ha, read-out: Plant response rating, Ryegrass, Italian",0%
same,pest or weed control at 125 g/ha,"[2]; Lolium multiflorum, post-emergence, 240 h, 125 g ai/ha, read-out: Plant response rating, Ryegrass, Italian",0%
same,pest or weed control at 31 g/ha,"[3]; Alopecurus myosuroides, post-emergence, 240 h, 31 g ai/ha, read-out: Plant response rating, Blackgrass",0%
same,pest or weed control at 125 g/ha,"[3]; Alopecurus myosuroides, post-emergence, 240 h, 125 g ai/ha, read-out: Plant response rating, Blackgrass",0%
same,pest or weed control at 31 g/ha,"[4]; Galium, post-emergence, 240 h, 31 g ai/ha, read-out: Plant response rating, Galium",10%
same,pest or weed control at 125 g/ha,"[4]; Galium, post-emergence, 240 h, 125 g ai/ha, read-out: Plant response rating, Galium",10%
same,"Corn plant response rating (crop injury, 0 = no effect, 100 = complete kill) at 31 g/ha","corn (Zea mays); Zea mays, post-emergence, 240 h, 31 g ai/ha",0%
same,"Corn plant response rating (crop injury, 0 = no effect, 100 = complete kill) at 125 g/ha","corn (Zea mays); Zea mays, post-emergence, 240 h, 125 g ai/ha",10%
same,pest or weed control at 31 g/ha,"[5]; Amaranthus retroflexus, post-emergence, 240 h, 31 g ai/ha, read-out: Plant response rating, Pigweed",10%
same,pest or weed control at 125 g/ha,"[5]; Amaranthus retroflexus, post-emergence, 240 h, 125 g ai/ha, read-out: Plant response rating, Pigweed",20%
same,pest or weed control at 31 g/ha,"[6]; Ambrosia artemisiifolia, post-emergence, 240 h, 31 g ai/ha, read-out: Plant response rating, Ragweed",0%
same,pest or weed control at 125 g/ha,"[6]; Ambrosia artemisiifolia, post-emergence, 240 h, 125 g ai/ha, read-out: Plant response rating, Ragweed",0%
same,pest or weed control at 31 g/ha,"[7]; Echinochloa crus-galli, post-emergence, 240 h, 31 g ai/ha, read-out: Plant response rating, Barnyardgrass",0%
same,pest or weed control at 125 g/ha,"[7]; Echinochloa crus-galli, post-emergence, 240 h, 125 g ai/ha, read-out: Plant response rating, Barnyardgrass",0%
same,pest or weed control at 31 g/ha,"kochia (Kochia scoparia) [8]; Bassia scoparia, post-emergence, 240 h, 31 g ai/ha, read-out: Plant response rating, Kochia",0%
same,pest or weed control at 125 g/ha,"kochia (Kochia scoparia) [8]; Bassia scoparia, post-emergence, 240 h, 125 g ai/ha, read-out: Plant response rating, Kochia",10%
same,pest or weed control at 31 g/ha,"[9]; Setaria faberi, post-emergence, 240 h, 31 g ai/ha, read-out: Plant response rating, Foxtail, Giant",0%
same,pest or weed control at 125 g/ha,"[9]; Setaria faberi, post-emergence, 240 h, 125 g ai/ha, read-out: Plant response rating, Foxtail, Giant",0%
same,pest or weed control at 31 g/ha,"[10]; Lolium multiflorum, pre-emergence, 240 h, 31 g ai/ha, 0 to 100 scale (0 no effect, 100 complete control), read-out: Ryegrass, Italian plant response rating",0%
same,pest or weed control at 125 g/ha,"[10]; Lolium multiflorum, pre-emergence, 240 h, 125 g ai/ha, 0 to 100 scale, read-out: Plant response rating, Ryegrass, Italian",0%
same,pest or weed control at 31 g/ha,"[11]; Amaranthus retroflexus, pre-emergence, 240 h, 31 g ai/ha, 0 to 100 scale (0 no effect, 100 complete control), read-out: Pigweed plant response rating",0%
same,pest or weed control at 125 g/ha,"[11]; Amaranthus retroflexus, pre-emergence, 240 h, 125 g ai/ha, 0 to 100 scale, read-out: Plant response rating, Pigweed",0%
same,pest or weed control at 31 g/ha,"[12]; Ambrosia artemisiifolia, pre-emergence, 240 h, 31 g ai/ha, 0 to 100 scale (0 no effect, 100 complete control), read-out: Ragweed plant response rating",0%
same,pest or weed control at 125 g/ha,"[12]; Ambrosia artemisiifolia, pre-emergence, 240 h, 125 g ai/ha, 0 to 100 scale, read-out: Plant response rating, Ragweed",0%
same,pest or weed control at 31 g/ha,"[13]; Echinochloa crus-galli, pre-emergence, 240 h, 31 g ai/ha, 0 to 100 scale (0 no effect, 100 complete control), read-out: Barnyardgrass plant response rating",0%
same,pest or weed control at 125 g/ha,"[13]; Echinochloa crus-galli, pre-emergence, 240 h, 125 g ai/ha, 0 to 100 scale, read-out: Plant response rating, Barnyardgrass",0%
same,pest or weed control at 31 g/ha,"kochia (Kochia scoparia) [14]; Bassia scoparia, pre-emergence, 240 h, 31 g ai/ha, 0 to 100 scale (0 no effect, 100 complete control), read-out: Kochia plant response rating",0%
same,pest or weed control at 125 g/ha,"kochia (Kochia scoparia) [14]; Bassia scoparia, pre-emergence, 240 h, 125 g ai/ha, 0 to 100 scale, read-out: Plant response rating, Kochia",0%
same,pest or weed control at 31 g/ha,"[15]; Setaria faberi, pre-emergence, 240 h, 31 g ai/ha, 0 to 100 scale (0 no effect, 100 complete control), read-out: Foxtail, Giant plant response rating",0%
same,pest or weed control at 125 g/ha,"[15]; Setaria faberi, pre-emergence, 240 h, 125 g ai/ha, 0 to 100 scale, read-out: Plant response rating, Foxtail, Giant",0%
